In PMC7641325, “Fragment-based discovery of a new class of inhibitors targeting mycobacterial tRNA modification” (Nucleic Acids Research, 2020):
≈ marks a conversion by molar mass, not a printed value. Read-outs that look alike come from different tables or passages of the source.

How the values were obtained:
M. abscessus TrmD [1] = target: T1, M. abscessus TrmD (Mycobacteroides abscessus, UniProt B1MDI3); assay: TrmD methylation (methyltransferase) inhibition assay, UPLC readout; type: biochemical; conditions: for IC50: 6.25 μM SAM, 0.1 μM TrmD, 6.25 μM tRNA ProUGG, 1 h room temperature
T1 sequence (B1MDI3 entry or part of it): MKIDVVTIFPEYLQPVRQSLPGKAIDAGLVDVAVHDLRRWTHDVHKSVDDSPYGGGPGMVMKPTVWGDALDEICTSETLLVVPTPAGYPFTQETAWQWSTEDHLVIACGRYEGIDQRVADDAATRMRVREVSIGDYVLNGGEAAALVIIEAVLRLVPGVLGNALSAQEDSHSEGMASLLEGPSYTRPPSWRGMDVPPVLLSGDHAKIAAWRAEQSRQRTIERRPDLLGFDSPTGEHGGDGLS
Description: Assays for quantifying TrmD methylation reactions were carried out in 20 μl reactions consisting of 6.25 μM SAM, 0.1 μM TrmD and 6.25 μM tRNA^ProUGG in the presence of 0–500 μM compounds in serial dilutions using assay buffer containing 50 mM Tris–HCl pH 7.5, 10 mM MgCl2, 24 mM NH4Cl, 5% DMSO and 1 mM DTT in nuclease free water. tRNA sequences were identified from the M. abscessus genome sequence using tRNAscan-SE algorithm, ([38],[39]). […]. The reactions were carried out for 1 h at room temperature followed by addition of 20 mM EDTA to stop the reactions. Each of the 20 μl samples were diluted ten-fold with the UPLC mobile phase solvent A (0.1% formic acid in water), centrifuged for 10 min at 13 000 g, to remove any precipitates, and the supernatant was aliquoted into 96-well plates. 40 μl samples were then injected into Acquity UPLC (Waters) T3 […] column and eluted using a gradient elution consisting of Mobile Phase A: 0.1% formic acid in water and mobile phase B: 0.1% formic acid in 100% methanol for 4 min. The absorbance was monitored using a photodiode array (PDA) detector (Waters) at wavelength range of ƛ: 220–500 nm. All reactions were carried out in triplicate. The blank corrected data were analyzed using Microsoft excel and non-linear regression analysis for IC50 determination were done using GraphPad prism version 7.00, GraphPad Software, La Jolla, CA, USA.

M. abscessus TrmD [2] = target: T1, M. abscessus TrmD; assay: biochemical; type: binding; conditions: for LE (ligand efficiency): from M. abscessus TrmD Kd; for fold improvement in affinity (decrease in Kd) over the parent compound: AW3 vs AW2, AW4 vs AW3, AW5 vs AW4
M. abscessus = assay: MIC measurement, M. abscessus; type: cell-based, Mycobacterium abscessus ssp. abscessus (ATCC 19977); conditions: Mycobacteroides abscessus, ATCC19977; ATCC 19977, Middlebrook 7H9 ADC, 37°C; read-out: Minimum inhibitory concentration (MIC) M. abscessus
M. tuberculosis H37Rv = assay: MIC measurement, M. tuberculosis; type: cell-based; conditions: Mycobacterium tuberculosis, 336 h, 7H9 base with DPPC, 2 weeks, 37°C, read-out: Minimum inhibitory concentration (MIC) M. tuberculosis
M. tuberculosis TrmD = M. tuberculosis TrmD (Mycobacterium tuberculosis, UniProt P9WFY7); assay: Isothermal titration calorimetry (ITC) with M. tuberculosis TrmD; type: binding
M. tuberculosis TrmD, sequence (P9WFY7 whole entry): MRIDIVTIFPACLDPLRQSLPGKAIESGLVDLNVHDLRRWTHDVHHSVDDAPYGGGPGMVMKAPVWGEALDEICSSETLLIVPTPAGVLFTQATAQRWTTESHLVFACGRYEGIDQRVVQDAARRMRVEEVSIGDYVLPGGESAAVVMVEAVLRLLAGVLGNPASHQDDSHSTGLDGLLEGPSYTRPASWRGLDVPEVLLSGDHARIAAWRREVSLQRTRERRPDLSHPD
Description: ITC experiments to quantify binding of ligands to TrmD were done as described in ([37]) using Malvern MicroCal iTC200 or Auto-iTC200 systems at 25°C. Titrations consisted of an initial injection (0.2 μl), discarded during data processing, followed by either 19 (2 μl) or 39 (1 μl) injections separated by intervals of 60–150 s duration. Protein was dialysed overnight at 4°C in storage buffer (M. abscessus TrmD: 50 mM HEPES pH 7.5, 500 mM NaCl, 5% glycerol; M. tuberculosis TrmD: 25 mM HEPES pH 7.5, 500 mM NaCl). Sample cell and syringe solutions were prepared using the same storage buffer, with a final DMSO concentration of 2–10% according to ligand solubility in the buffer. TrmD concentrations of either 33 or 100 μM were used, with ligand to protein concentration ratios ranging from 10 to 20:1. Control titrations without protein were also performed and subtracted from ligand to protein titrations. Titrations were fitted with Origin software (OriginLab, Northampton, MA, USA), using a one-site binding model with N fixed to 1 only for weakly binding ligands. Titrations were typically performed once (n = 1), with multiple isotherms obtained (n > 1) for key compounds of interest. Kd values are reported to two significant figures. Error provided by Origin software due to model fit is reported when n = 1, whereas standard deviation is reported when n > 1.

M. gordonae = assay: MIC measurement, M. gordonae; type: cell-based; conditions: Mycobacterium gordonae; clinical isolate; read-out: Minimum inhibitory concentration (MIC) M. gordonae
human macrophages = assay: LDH release cytotoxicity assay; type: cell-based; conditions: at or below a concentration of 150 μM
Excerpt: Blood samples were donated by healthy volunteers who had undertaken informed consent in accordance with local Research Ethics Committee approval. Peripheral blood mononuclear cells were isolated from citrated peripheral blood samples by density gradient separation using Lympholyte (Cedarlane Labs), and subsequent CD14^+ positive selection using the MACS Miltenyi Biotec Human CD14 microbead protocol (Miltenyi Biotec). CD14^+ cells were differentiated into macrophages using recombinant human granulocyte-macrophage colony-stimulating factor (200 ng/ml GM-CSF) and recombinant human interferon gamma (50 ng/ml IFNγ) (Peprotech) in standard tissue culture DMEM media containing fetal calf serum, penicillin and streptomycin. […] At the given time points, supernatant was saved for cell cytotoxicity studies, and M. abscessus survival within the macrophages calculated by macrophage lysis in sterile water, and colony forming unit calculation on Columbia Blood Agar plates (VWR BDH).
Lactate dehydrogenase (LDH) was measured as a biomarker for cellular cytotoxicity using the Pierce LDH Cytotoxicity Assay Kit. Cell supernatant was measured at 2, 24 and 48 h post-infection according to the kit protocol.

M. chelonae = assay: MIC measurement, M. chelonae; type: cell-based; conditions: Mycobacteroides chelonae; clinical isolate; read-out: Minimum inhibitory concentration (MIC) M. chelonae
M. terrae = assay: MIC measurement, M. terrae; type: cell-based; conditions: Mycolicibacter terrae; clinical isolate; read-out: Minimum inhibitory concentration (MIC) M. terrae
M. fortuitum = assay: MIC measurement, M. fortuitum; type: cell-based; conditions: Mycolicibacterium fortuitum; clinical isolate; read-out: Minimum inhibitory concentration (MIC) M. fortuitum
[3] = test system: M. abscessus-infected human macrophages; assay: Macrophage infection study (CFU of intracellular M. abscessus); type: cell-based, Mycobacterium abscessus; conditions: 25 μM compound, 48 h incubation
Excerpt: Blood samples were donated by healthy volunteers who had undertaken informed consent in accordance with local Research Ethics Committee approval. Peripheral blood mononuclear cells were isolated from citrated peripheral blood samples by density gradient separation using Lympholyte (Cedarlane Labs), and subsequent CD14^+ positive selection using the MACS Miltenyi Biotec Human CD14 microbead protocol (Miltenyi Biotec). CD14^+ cells were differentiated into macrophages using recombinant human granulocyte-macrophage colony-stimulating factor (200 ng/ml GM-CSF) and recombinant human interferon gamma (50 ng/ml IFNγ) (Peprotech) in standard tissue culture DMEM media containing fetal calf serum, penicillin and streptomycin. Following removal of antibiotics, macrophages were infected at a multiplicity of infection of 10:1 with M. abscessus 19977 for 2 h, washed in sterile phosphate buffered saline, and then incubated in DMEM media with FCS and 25 μM of compound for 24 and 48 h. At the given time points, supernatant was saved for cell cytotoxicity studies, and M. abscessus survival within the macrophages calculated by macrophage lysis in sterile water, and colony forming unit calculation on Columbia Blood Agar plates (VWR BDH).

M. avium = assay: MIC measurement, M. avium; type: cell-based; conditions: Mycobacterium avium; clinical isolate; read-out: Minimum inhibitory concentration (MIC) M. avium
[4] = test system: axenically-maintained M. leprae; assay: M. leprae axenic culture, radiorespirometry; type: cell-based, Mycobacterium leprae; conditions: 100-6.25 μM, 7 days, 33°C
Description: Freshly harvested nude mouse foot pad derived M. leprae were suspended in modified 7H12 medium, AW7 was added at different concentrations (100–6.25 μM) and were incubated for 7 days at 33°C. Media only and rifampin (Sigma, USA) at 2.4 μM were used as negative and positive controls. Following incubation aliquots of AW7 treated and control M. leprae were processed for radiorespirometry (RR) as described previously ([43]).
(§1) Metabolism of a suspension of M. leprae was measured by evaluating the oxidation of ^14C-palmitic acid to ^14CO2 by radiorespirometry as described previously ([45]). Levels of captured ^14CO2 is proportional to the rate of ^14C-palmitic acid oxidation and used as an indicator of M. leprae viability. In the present study the seventh day cumulative counts per minute (CPM) were recorded and percentage inhibition of metabolism determined as compared to no drug control. Statistical significance between treatment groups and no drug control were determined by Student's t-test and P < 0.05 is considered as significant.

M. abscessus TrmD [5] = target: T1, M. abscessus TrmD; assay: CRISPR-dCas9 knockdown of trmD in M. abscessus (target engagement); conditions: 25 μM AW7, doxycycline 1.5625-100 ng/ml, 72 h; effect not seen with yidC gRNA or empty vector
Description: The dCas9 encoding plasmid (pTetInt-dcas9-Km) and the second vector containing the sgRNA cassette (pGRNAz) were derived from the tetracycline inducible CRISPr Interference system of Choudhary et al. ([40]) and optimized for M. abscessus ATCC19977. The 20 nucleotides guides targeting yidC(MAB_4953c) and trmD(MAB_3226c) were annealed and cloned in between sphI and aclI of the pGRNAz. As a control the pGRNAz was left empty. The CRISPr-I containing strains were cultivated in Middlebrook 7H9 broth supplemented with 1× ADC, 0.05% tween80 and 0.5% glycerol, hygromycin 1 mg/ml and zeocin 300 μg/ml. The cultures were inoculated at 10^6CFU/ml from an exponentially grown pre-cultures. […] The OD600 was measured and the CFU counted at 72 h.

[6] = test system: M. leprae maintained intracellularly in murine bone marrow macrophage; assay: Intracellular M. leprae in murine bone marrow macrophages, radiorespirometry; type: cell-based; conditions: Mycobacterium leprae, 168 h, AW7 at 6.2 μM, 7 days, read-out: inhibition of β-oxidation (14C-palmitic acid oxidation, radiorespirometry)
Description: Bone marrow cells were obtained aseptically from both femurs of female BALB/c mice and cultured on plastic cover slips in Dulbecco modified Eagle's medium (DMEM, Life Technologies, USA) supplemented with 10% (v/v) fetal calf serum (Life Technologies), 25 mM/l HEPES (Sigma, USA), 2 mM/l glutamine (Sigma, USA), 50 μg/ml ampicillin (Sigma, USA) and 10 ng/ml of recombinant murine macrophages colony stimulating factor (R&D Systems, USA) for 6–7 days at 37°C and 5% CO2. The cells were infected with freshly harvested nude mice foot pad derived live M. leprae at a multiplicity of infection (MOI) of 20:1 overnight at 33°C and then washed to remove extracellular bacteria. AW7 was added at different concentrations (100–6.25 μM) and the cells were incubated for 7 days at 33°C. Media only and rifampicin at 2.4 μM were used as negative and positive controls. […]
as §1, with “Levels of captured ^14CO2 is proportional to the rate of ^14C-palmitic acid oxidation and used as an indicator of M. leprae viability.” left out

[7] = ITC, 25°C, M. abscessus TrmD, read-out: Kd

SMILES	IC50 (M. abscessus TrmD [1]) [µM]	Kd (M. abscessus TrmD [2]; [7]) [µM]	LE (ligand efficiency) (M. abscessus TrmD [2]) [kcal/ mol/ heavy atom]	MIC (M. abscessus) [µM]	MIC (M. tuberculosis H37Rv) [µM]	fold improvement in affinity (decrease in Kd) over the parent compound (M. abscessus TrmD [2]) [fold]	other results
Nc1cc(-c2ccc3ccn(Cc4ccccn4)c3c2)[nH]n1 [AW2]	33 ± 4	12 ± 1	0.30				
COc1ccc(-c2cc(N)n[nH]2)cc1 [Fragment 23]		170	0.37				
N#Cc1c(N)n[nH]c1-c1ccc2ccn(Cc3ccc(CN4CCCC4)cc3)c2c1 [AW5]	0.03 ± 0.003	0.027 ± 0.004	0.34	50 (≈ 19.8 µg/mL)	12.5 (≈ 4.96 µg/mL)	> 3	
N#Cc1c(N)n[nH]c1-c1ccc2ccn(Cc3ccccn3)c2c1 [AW3]	0.31 ± 0.01	0.5 ± 0.14	0.36			25	fold decrease in IC50 over the parent compound (M. abscessus TrmD [1]; AW3 vs AW2): 100 fold
N#Cc1c(N)n[nH]c1-c1ccc2ccn(Cc3ccc(CN4CCCC4)cn3)c2c1 [AW4]		0.092 ± 0.018	0.32			5	
OB(O)c1ccc2cc[nH]c2c1 [Fragment 24]		260	0.41				
Nc1cc(-c2ccc3cc[nH]c3c2)[nH]n1 [AW1]	230 ± 29	110 ± 11	0.36				
Nc1cc(-c2ccc3ccn(Cc4ccc(CN5CCCC5)cc4)c3c2)[nH]n1 [AW6]	1.4 ± 0.1		0.31	50 (≈ 18.6 µg/mL)	6.3 (≈ 2.34 µg/mL)		Kd (M. tuberculosis TrmD): 0.9 µM; MIC (M. gordonae): 100 µM (≈ 37.1 µg/mL); cellular toxicity (LDH release) (human macrophages): neither compound caused cellular toxicity; MIC (M. chelonae): 100 µM (≈ 37.1 µg/mL); MIC (M. terrae): 100 µM (≈ 37.1 µg/mL); MIC (M. fortuitum): 100 µM (≈ 37.1 µg/mL); decrease in CFUs compared to the no drug control [3]: ~82%; MIC (M. avium): 200 µM (≈ 74.3 µg/mL); Kd (M. abscessus TrmD [2]): 0.49 ± 0.21 µM
CN1CCN(Cc2ccc(Cn3ccc4ccc(-c5[nH]nc(N)c5C#N)cc43)cc2)CC1 [AW7]	0.069 ± 0.007		0.30	50 (≈ 21.3 µg/mL)	6.3 (≈ 2.68 µg/mL)		inhibitory activity against axenic M. leprae (radiorespirometry) [4]: show inhibitory activity; Kd (M. tuberculosis TrmD): 0.33 µM; MIC (M. gordonae): 100 µM (≈ 42.6 µg/mL); cellular toxicity (LDH release) (human macrophages): neither compound caused cellular toxicity; MIC (M. chelonae): 100 µM (≈ 42.6 µg/mL); sensitivity of M. abscessus to the compound on incremental silencing of TrmD (M. abscessus TrmD [5]): progressively more sensitive to AW7; MIC (M. terrae): 25 µM (≈ 10.6 µg/mL); MIC (M. fortuitum): 100 µM (≈ 42.6 µg/mL); decrease in CFUs compared to the no drug control [3]: 95%; MIC (M. avium): 100 µM (≈ 42.6 µg/mL); Kd (M. abscessus TrmD [2]): 0.073 ± 0.03 µM; inhibition at 6.2 µM [6]: > 50%
